Results from US6525001B1, “Substituted pyrimidine and pyridine herbicides” (Mid-American Commercialization Corporation, priority 1997, dated 2003).

Tests used:
Type in all cases: in vivo
Conditions in all cases: PREEMERGENCE
[1] = test system: surinam grass (Brachiaria decumbens); assay: Test C
[2] = test system: fall panicum (Panicum dichotomiflorum); assay: Test C; set-up: key: 0 was no effect; 100 was complete control
[3] = test system: corn (Zea mays); assay: Test C
[4] = test system: johnsongrass (Sorghum halepense); assay: Test C
[5] = test system: redroot pigweed (Amaranthus retroflexus); assay: Test C; set-up: key: 0 was no effect; 100 was complete control
[6] = test system: dallisgrass (Paspalum dilatatum); assay: Test E pre-/postemergence/post directed; set-up: key: 0 is no effect; 100 is complete control
Excerpt: (§1) Seeds, tubers, or plant parts of alexandergrass (Brachiaria plantaginea), annual bluegrass (Poa annua), arrowleaf sida (Sida rhombifolia), barnyardgrass (Echinochloa crus-galli), bermudagrass (Cynodon dactylon), citrus (Citrus sinensis), common chickweed (Stellaria media), common purslane (Portulaca oleracea), common ragweed (Ambrosia elatior), common groundsel (Senecio vulgaris), dallisgrass (Paspalum dilatatum), goosegrass (Eleusine indica), green foxtail (Setaria viridis), guineagrass (Panicum maximum), itchgrass (Rottboellia exaltata), johnson grass (Sorghum halepense), kochia (Kochia scoparia), large crabgrass (Digitaria sanguinalis), leafy spurge (Euphorbia esula), pitted morningglory (Ipomoea lacunosa), purple nutsedge (Cyperus rotundus), quackgrass (Agropyron repens), Russian thistle (Salsola kali), sandbur (Cenchrus echinatus), sourgrass (Trichachne insularis), Spanishneedles (Bidens bipinnata), sugarcane (Saccharum officinarum), surinam grass (Brachiaria decumbens) and tall mallow (Malva sylvestris) were planted into greenhouse pots of flats containing greenhouse planting medium. Plant species were grown grown in separate pots or individual compartments. Preemergence applications were made within one day of planting the seed or plant part. Postemergence applications were applied when the plants were in the two to four leaf stage (three to twenty cm).
(§2) Test chemicals were formulated in a non-phytotoxic solvent mixture which included a surfactant and applied preemergence to the soil surface, postemergence to the plants or as a post directed spray to plants and soil at the base of the target species. Untreated control plants and treated plants were placed in the greenhouse and visually evaluated for injury 13 to 21 days after herbicide application. Plant response ratings, summarized in Table E, are based on a 0 to 100 scale where 0 is no injury and 100 is complete control. A dash (−) response means no test result.

[7] = test system: goosegrass (Eleusine indica); assay: Test E pre-/postemergence/post directed; set-up: key: 0 is no effect; 100 is complete control
Excerpt: as §1, §2

[8] = test system: common purslane (Portulaca oleracea); assay: Test E pre-/postemergence/post directed; set-up: key: 0 is no effect; 100 is complete control
Excerpt: as §1, §2

[9] = test system: large crabgrass (Digitaria sanguinalis); assay: Test E pre-/postemergence/post directed; set-up: key: 0 is no effect; 100 is complete control
Excerpt: as §1, §2

[10] = test system: common groundsel (Senecio vulgaris); assay: Test E pre-/postemergence/post directed; set-up: key: 0 is no effect; 100 is complete control
Excerpt: as §1, §2

[11] = test system: sourgrass (Trichachne insularis); assay: Test E pre-/postemergence/post directed; set-up: key: 0 is no effect; 100 is complete control
Excerpt: as §1, §2

[12] = test system: guineagrass (Panicum maximum); assay: Test E pre-/postemergence/post directed; set-up: key: 0 is no effect; 100 is complete control
Excerpt: as §1, §2

[13] = test system: tall mallow (Malva sylvestris); assay: Test E pre-/postemergence/post directed; set-up: key: 0 is no effect; 100 is complete control
Excerpt: as §1, §2

[14] = test system: surinam grass (Brachiaria decumbens); assay: Test E pre-/postemergence/post directed; set-up: key: 0 is no effect; 100 is complete control
Excerpt: as §1, §2

[15] = test system: barnyardgrass (Echinochloa crus-galli); assay: Test C; set-up: key: 0 was no effect; 100 was complete control
[16] = test system: soybean (Glycine max); assay: Test C; set-up: key: 0 was no effect; 100 was complete control
[17] = test system: hairy beggarticks (Bidens pilosa); assay: Test C; set-up: key: 0 was no effect; 100 was complete control

Cc1cnc(-n2ccc(C(F)(F)F)n2)nc1Cc1cccc(OC(F)(F)F)c1 [Compound 42]
Plant response rating, Surinam grass ([1]; Rate 35 g/ha): 50
Plant response rating, Surinam grass ([1]; Rate 70 g/ha): 55
Plant response rating, Surinam grass ([1]; Rate 140 g/ha): 70
Plant response rating, Fall panicum ([2]; Rate 35 g/ha): 50
Plant response rating, Fall panicum ([2]; Rate 70 g/ha): 85
Plant response rating, Fall panicum ([2]; Rate 140 g/ha): 100
Plant response rating, Corn ([3]; Rate 35 g/ha): 5
Plant response rating, Corn ([3]; Rate 70 g/ha): 5
Plant response rating, Corn ([3]; Rate 140 g/ha): 5
Plant response rating, Johnsongrass ([4]; Rate 35 g/ha): 70
Plant response rating, Johnsongrass ([4]; Rate 70 g/ha): 70
Plant response rating, Johnsongrass ([4]; Rate 140 g/ha): 85
Plant response rating, Redroot pigweed ([5]; Rate 35 g/ha): 100
Plant response rating, Redroot pigweed ([5]; Rate 70 g/ha): 100
Plant response rating, Redroot pigweed ([5]; Rate 140 g/ha): 100
Plant response rating, Dallisgrass ([6]; Rate 32 g/ha): 70
Plant response rating, Dallisgrass ([6]; Rate 64 g/ha): 95
Plant response rating, Dallisgrass ([6]; Rate 125 g/ha): 100
Plant response rating, Dallisgrass ([6]; Rate 250 g/ha): 100
Plant response rating, Goosegrass ([7]; Rate 32 g/ha): 98
Plant response rating, Goosegrass ([7]; Rate 64 g/ha): 100
Plant response rating, Goosegrass ([7]; Rate 125 g/ha): 100
Plant response rating, Goosegrass ([7]; Rate 250 g/ha): 100
Plant response rating, Com. purslane ([8]; Rate 32 g/ha): 100
Plant response rating, Com. purslane ([8]; Rate 64 g/ha): 100
Plant response rating, Com. purslane ([8]; Rate 125 g/ha): 100
Plant response rating, Com. purslane ([8]; Rate 250 g/ha): 100
Plant response rating, Large crabgrass ([9]; Rate 125 g/ha): 100
Plant response rating, Large crabgrass ([9]; Rate 250 g/ha): 100
Plant response rating, Com. groundsel ([10]; Rate 64 g/ha): 100
Plant response rating, Com. groundsel ([10]; Rate 125 g/ha): 100
Plant response rating, Com. groundsel ([10]; Rate 250 g/ha): 100
Plant response rating, Sourgrass ([11]; Rate 32 g/ha): 100
Plant response rating, Sourgrass ([11]; Rate 64 g/ha): 100
Plant response rating, Sourgrass ([11]; Rate 125 g/ha): 100
Plant response rating, Sourgrass ([11]; Rate 250 g/ha): 100
Plant response rating, Guineagrass ([12]; Rate 32 g/ha): 95
Plant response rating, Guineagrass ([12]; Rate 64 g/ha): 95
Plant response rating, Guineagrass ([12]; Rate 125 g/ha): 100
Plant response rating, Guineagrass ([12]; Rate 250 g/ha): 100
Plant response rating, Tall Mallow ([13]; Rate 32 g/ha): 98
Plant response rating, Tall Mallow ([13]; Rate 64 g/ha): 98
Plant response rating, Tall Mallow ([13]; Rate 125 g/ha): 98
Plant response rating, Tall Mallow ([13]; Rate 250 g/ha): 100
Plant response rating, Surinam grass ([14]; Rate 125 g/ha): 100
Plant response rating, Surinam grass ([14]; Rate 250 g/ha): 100
Plant response rating, Barnyardgrass ([15]; Rate 35 g/ha): 5
Plant response rating, Barnyardgrass ([15]; Rate 70 g/ha): 10
Plant response rating, Barnyardgrass ([15]; Rate 140 g/ha): 100
Plant response rating, Soybean ([16]; Rate 35 g/ha): 0
Plant response rating, Soybean ([16]; Rate 70 g/ha): 5
Plant response rating, Soybean ([16]; Rate 140 g/ha): 35
Plant response rating, H. beggarticks ([17]; Rate 35 g/ha): 0
Plant response rating, H. beggarticks ([17]; Rate 140 g/ha): 90
